Reference: patent publication US20260022142A1, “MACROCYCLIC IMMUNOMODULATORS” (Bristol-Myers Squibb Company, priority 2022, published 2026)
Numbered stars: 1 amine (or outer) side, 2 acyl side, 3 side chain; on linkers, the order of the positions; unused ones are H or OH. Bridge positions count the residues as written; N and C are the ends. Square brackets hold non-standard residues; d marks the D form. Peptide text beside a SMILES is read from it. * marks the point of attachment. ξ: configuration not given here. Phe(3-CF3) = N[C@@H](Cc1cccc(C(F)(F)F)c1)C(=O)O; Ala(morpholin-4-yl) = N[C@@H](CN1CCOCC1)C(=O)O; Phe(4-CONH2) = NC(=O)c1ccc(C[C@H](N)C(=O)O)cc1; Phe(4-COOH) = N[C@@H](Cc1ccc(C(=O)O)cc1)C(=O)O; Bip = N[C@@H](Cc1ccc(-c2ccccc2)cc1)C(=O)O; Phe(3-CN) = N#Cc1cccc(C[C@H](N)C(=O)O)c1; Phe(3-Me) = Cc1cccc(C[C@H](N)C(=O)O)c1; βAsp = O=C(O)[C@H](CC(=O)[*:2])N[*:1]; ξBip = NC(Cc1ccc(-c2ccccc2)cc1)C(=O)O; NH(CH2)12COOH = O=C(O)CCCCCCCCCCCCN*; Val(3-OH) = CC(C)(O)[C@H](N)C(=O)O; hArg = N=C(N)NCCCC[C@H](N)C(=O)O; hCit = NC(=O)NCCCC[C@H](N)C(=O)O; 4Pal = N[C@@H](Cc1ccncc1)C(=O)O; Cha = N[C@@H](CC1CCCCC1)C(=O)O; Cit = NC(=O)NCCC[C@H](N)C(=O)O; aThr = C[C@H](O)[C@H](N)C(=O)O; Thr(3ξ) = CC(O)[C@H](N)C(=O)O; 12Ado = NCCCCCCCCCCCC(=O)O; Carboxymethyl = O=C(O)C*; Orn = NCCC[C@H](N)C(=O)O; Aun = NCCCCCCCCCCC(=O)O; Dab = NCC[C@H](N)C(=O)O; Dap = NC[C@H](N)C(=O)O; ξD = NC(CC(=O)O)C(=O)O; AEEA = NCCOCCOCC(=O)O

What follows are molecules tested against T1, PD-1/PD-L1 interaction (PE-labeled human PD-L1-Ig binding to Jurkat cell line over-expressing human PD-1) (Homo sapiens, UniProt Q15116) (assay: Jurkat-PD-1 Cell Binding High-Content Screening Assay (CBA)). Conditions: Jurkat cell line over-expressing human PD-1; PE-labeled PD-L1-Ig 20 nM final; read-out: Jurkat hPD1-PDL1 IC50.
T1 construct: expressed in transfected cells; host or cells: Jurkat
Assay type: cell-based
Procedure, shortened: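 First, compound is added to PD-1-expressing Jurkat cells in serum-containing DMEM and left 2 h at 37° C. Next, PE-conjugated PD-L1-Ig is introduced at 20 nM final concentration for 1 hour. Finally, cells are fixed in 4% paraformaldehyde with Hoechst 33342, washed and imaged.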

T1 sequence (Q15116 25-288): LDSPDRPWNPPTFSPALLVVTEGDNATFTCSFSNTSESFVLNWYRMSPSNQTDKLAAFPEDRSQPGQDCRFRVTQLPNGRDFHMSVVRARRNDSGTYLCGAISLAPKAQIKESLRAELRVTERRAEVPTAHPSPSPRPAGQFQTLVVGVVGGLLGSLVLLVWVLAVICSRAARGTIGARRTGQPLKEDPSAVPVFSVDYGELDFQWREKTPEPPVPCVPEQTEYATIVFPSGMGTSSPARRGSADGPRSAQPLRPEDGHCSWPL

Compound	IC50 [nM]
CC(C)C[C@H]1NC(=O)[C@H](CCCN)NC(=O)[C@H](C(C)C)NC(=O)[C@H](Cc2ccc(-c3ccccc3)cc2)NC(=O)[C@H](C(C)C)NC(=O)[C@H](Cc2c[nH]c3ccccc23)NC(=O)[C@H](CC(=O)O)NC(=O)[C@H](Cc2ccc(OCC(=O)O)cc2)NC(=O)[C@H](CN)NC(=O)CSC[C@@H](C(=O)N[C@@H](CCN)C(=O)NCCCCCCCCCCC(=O)O)NC(=O)[C@@H](CCC(N)=O)NC(=O)[C@H](C(C)C)NC(=O)[C@H](CC2CCCCC2)NC(=O)[C@H](Cc2c[nH]cn2)NC1=O [Compound 2795] ({CH2CO}-[Dap]Y(Carboxymethyl)DWV[Bip]V[Orn][dL]H[Cha]V[dQ]C[Dab][Aun]-OH; thioether N-14)	63.4
Cc1cccc(C[C@@H]2NC(=O)[C@H](CC(=O)O)NC(=O)[C@H](Cc3ccc(OCC(=O)O)cc3)NC(=O)[C@H](CN)NC(=O)CSC[C@@H](C(=O)N[C@@H](C)C(=O)N[C@@H](CCCN)C(=O)NCC(=O)NCCCCCCCCCCC(=O)O)NC(=O)[C@H]([C@@H](C)O)NC(=O)[C@H](C(C)C)NC(=O)[C@H](CC3CCCCC3)NC(=O)[C@H](CCN)NC(=O)[C@@H](CC(C)C)NC(=O)[C@H](CCCN)NC(=O)[C@H](CCCNC(N)=O)NC(=O)[C@H](Cc3ccc(-c4ccccc4)cc3)NC(=O)[C@H](C(C)C)NC2=O)c1 [Compound 1068] ({CH2CO}-[Dap]Y(Carboxymethyl)D[Phe(3-Me)]V[Bip][Cit][Orn][dL][Dab][Cha]VTCA[Orn]G[Aun]-OH; thioether N-14)	10.4
CC(C)C[C@H]1NC(=O)[C@H](CCCN)NC(=O)[C@H](C(C)C)NC(=O)[C@H](Cc2ccc(-c3ccccc3)cc2)NC(=O)[C@H](C(C)C)NC(=O)[C@H](Cc2c[nH]c3ccccc23)NC(=O)[C@H](CC(=O)O)NC(=O)[C@H](CCCCNC(N)=O)NC(=O)[C@H](Cc2ccc(OCC(=O)O)cc2)NC(=O)CSC[C@@H](C(=O)NCC(=O)NCCOCCOCC(=O)N[C@@H](CCCN)C(=O)NCCCCCCCCCCCC(=O)O)NC(=O)[C@H](CN)NC(=O)[C@H](C(C)C)NC(=O)[C@H](CC2CCCCC2)NC(=O)[C@H](CCN)NC1=O [Compound 3169] ({CH2CO}-Y(Carboxymethyl)[hCit]DWV[Bip]V[Orn][dL][Dab][Cha]V[Dap]CG[AEEA][Orn][12Ado]-OH; thioether N-14)	20.8
Cc1cccc(C[C@@H]2NC(=O)[C@H](CC(=O)O)NC(=O)[C@H](Cc3ccncc3)NC(=O)[C@H](Cc3ccc(OCC(=O)O)cc3)NC(=O)CSC[C@@H](C(=O)N[C@@H](Cc3cnc[nH]3)C(=O)NCCCCCCCCCCC(=O)O)NC(=O)[C@H]([C@@H](C)O)NC(=O)[C@H](C(C)C)NC(=O)[C@H](CC3CCCCC3)NC(=O)[C@H](CCN)NC(=O)[C@@H](CC(C)C)NC(=O)[C@H](CCCN)NC(=O)[C@H](C(C)C)NC(=O)[C@H](Cc3ccc(-c4ccccc4)cc3)NC(=O)[C@H](C(C)C)NC2=O)c1 [Compound 1168] ({CH2CO}-Y(Carboxymethyl)[4Pal]D[Phe(3-Me)]V[Bip]V[Orn][dL][Dab][Cha]VTCH[Aun]-OH; thioether N-14)	147
CC(C)C[C@H]1NC(=O)[C@H](CCCN)NC(=O)[C@H](Cc2ccc(C(=O)O)cc2)NC(=O)[C@H](Cc2ccc(-c3ccccc3)cc2)NC(=O)[C@H](Cc2ccc(C(=O)O)cc2)NC(=O)[C@H](Cc2cccc(C(F)(F)F)c2)NC(=O)[C@H](CC(=O)O)NC(=O)[C@H](Cc2ccc(OCC(=O)O)cc2)NC(=O)[C@H](CN2CCOCC2)NC(=O)CSC[C@@H](C(=O)N[C@@H](CCN)C(=O)NCCCCCCCCCCCCC(=O)O)NC(=O)[C@H](CC(=O)O)NC(=O)[C@H](C(C)(C)O)NC(=O)[C@H](CC2CCCCC2)NC(=O)[C@H](CCN)NC1=O [Compound 2921] ({CH2CO}-[Ala(morpholin-4-yl)]Y(Carboxymethyl)D[Phe(3-CF3)][Phe(4-COOH)][Bip][Phe(4-COOH)][Orn][dL][Dab][Cha][Val(3-OH)]DC[Dab]-{NH(CH2)12COOH}; thioether N-14)	20.5
CC(C)C[C@H]1NC(=O)[C@H](CCCN)NC(=O)[C@H](C(C)C)NC(=O)[C@H](Cc2ccc(-c3ccccc3)cc2)NC(=O)[C@H](C(C)C)NC(=O)[C@H](Cc2c[nH]c3ccccc23)NC(=O)[C@H](CC(=O)O)NC(=O)[C@H](Cc2ccc(OCC(=O)O)cc2)NC(=O)[C@H](CCCCNC(=N)N)NC(=O)CSC[C@@H](C(=O)NCC(=O)NCCOCCOCC(=O)N[C@@H](CCCN)C(=O)NCCCCCCCCCCC(=O)O)NC(=O)[C@H](CCN)NC(=O)[C@H](C(C)C)NC(=O)[C@H](CC2CCCCC2)NC(=O)[C@H](CC(N)=O)NC1=O [Compound 3202] ({CH2CO}-[hArg]Y(Carboxymethyl)DWV[Bip]V[Orn][dL]N[Cha]V[Dab]CG[AEEA][Orn][Aun]-OH; thioether N-14)	19.3
Cc1cccc(C[C@@H]2NC(=O)[C@H](CC(=O)O)NC(=O)[C@H](Cc3ccc(OCC(=O)O)cc3)NC(=O)[C@H](CN)NC(=O)CSC[C@@H](C(=O)N[C@@H](CC(=O)NCCOCCOCC(=O)NCCCCCCCCCCC(=O)O)C(=O)O)NC(=O)[C@H]([C@@H](C)O)NC(=O)[C@H](C(C)C)NC(=O)[C@H](CC3CCCCC3)NC(=O)[C@H](CCN)NC(=O)[C@@H](CC(C)C)NC(=O)[C@H](CCCN)NC(=O)[C@H](CCCNC(N)=O)NC(=O)[C@H](Cc3ccc(-c4ccccc4)cc3)NC(=O)[C@H](C(C)C)NC2=O)c1 [Compound 1035] ({CH2CO}-[Dap]Y(Carboxymethyl)D[Phe(3-Me)]V[Bip][Cit][Orn][dL][Dab][Cha]VTC[βAsp][AEEA][Aun]-OH; thioether N-14)	9
CC(C)C[C@H]1NC(=O)[C@H](CCCN)NC(=O)[C@H](C(C)C)NC(=O)[C@H](Cc2ccc(-c3ccccc3)cc2)NC(=O)[C@H](C(C)C)NC(=O)[C@H](Cc2c[nH]c3ccccc23)NC(=O)[C@H](CC(=O)O)NC(=O)[C@H](Cc2ccc(OCC(=O)O)cc2)NC(=O)[C@H](CCCCNC(=N)N)NC(=O)CSC[C@@H](C(=O)NCCOCCOCC(=O)N[C@@H](CCCCN)C(=O)NCCCCCCCCCCC(=O)O)NC(=O)[C@H]([C@H](C)O)NC(=O)[C@H](C(C)C)NC(=O)[C@H](CC2CCCCC2)NC(=O)[C@H](CC(N)=O)NC1=O [Compound 3163] ({CH2CO}-[hArg]Y(Carboxymethyl)DWV[Bip]V[Orn][dL]N[Cha]V[aThr]C[AEEA]K[Aun]-OH; thioether N-14)	22.3

The remaining molecules from weak to strong by IC50, led by results:

IC50 [nM]	Compound
22.8	Cc1cccc(C[C@@H]2NC(=O)[C@H](CC(=O)O)NC(=O)[C@H](Cc3ccc(OCC(=O)O)cc3)NC(=O)[C@H](Cc3ccncc3)NC(=O)CSC[C@@H](C(=O)NCCOCCOCC(=O)NCCCCCCCCCCC(=O)O)NC(=O)[C@H](C(C)O)NC(=O)[C@H](C(C)(C)O)NC(=O)[C@H](CC3CCCCC3)NC(=O)[C@H](CCN)NC(=O)[C@@H](CC(C)C)NC(=O)[C@H](CCCN)NC(=O)[C@H](Cc3ccc(O)cc3)NC(=O)[C@H](Cc3ccc(-c4ccccc4)cc3)NC(=O)[C@H](Cc3ccc(C(N)=O)cc3)NC2=O)c1 (stereo partly drawn) [Compound 3730] ({CH2CO}-[4Pal]Y(Carboxymethyl)D[Phe(3-Me)][Phe(4-CONH2)][Bip]Y[Orn][dL][Dab][Cha][Val(3-OH)][Thr(3ξ)]C[AEEA][Aun]-OH; thioether N-14)
11.8	Cc1cccc(C[C@@H]2NC(=O)[C@H](CC(=O)O)NC(=O)[C@H](Cc3cccc(C#N)c3)NC(=O)[C@H](Cc3ccncc3)NC(=O)CSC[C@@H](C(=O)N[C@@H](CCN)C(=O)NCCCCCCCCCCC(=O)O)NC(=O)[C@H](CO)NC(=O)[C@H](C(C)(C)O)NC(=O)[C@H](CC3CCCCC3)NC(=O)[C@H](CCN)NC(=O)[C@@H](CC(C)C)NC(=O)[C@H](CCCN)NC(=O)[C@H](Cc3ccc(OCC(=O)O)cc3)NC(=O)[C@H](Cc3ccc(-c4ccccc4)cc3)NC(=O)[C@H](Cc3ccc(OCC(=O)O)cc3)NC2=O)c1 [Compound 2195] ({CH2CO}-[4Pal][Phe(3-CN)]D[Phe(3-Me)]Y(Carboxymethyl)[Bip]Y(Carboxymethyl)[Orn][dL][Dab][Cha][Val(3-OH)]SC[Dab][Aun]-OH; thioether N-14)
10.8	Cc1cccc(C[C@@H]2NC(=O)[C@H](CC(=O)O)NC(=O)[C@H](Cc3ccc(OCC(=O)O)cc3)NC(=O)[C@H](CN)NC(=O)CSC[C@@H](C(=O)NCCOCCOCC(=O)N[C@@H](CCN)C(=O)NCCCCCCCCCCC(=O)O)NC(=O)[C@H](CCCN)NC(=O)[C@H](C(C)C)NC(=O)[C@H](CC3CCCCC3)NC(=O)[C@H](CCN)NC(=O)[C@@H](CC(C)C)NC(=O)[C@H](CCCN)NC(=O)[C@H](Cc3ccc(O)cc3)NC(=O)[C@H](Cc3ccc(-c4ccccc4)cc3)NC(=O)[C@H](C(C)C)NC2=O)c1 [Compound 2592] ({CH2CO}-[Dap]Y(Carboxymethyl)D[Phe(3-Me)]V[Bip]Y[Orn][dL][Dab][Cha]V[Orn]C[AEEA][Dab][Aun]-OH; thioether N-14)
10.7	Cc1cccc(C[C@@H]2NC(=O)[C@H](CC(=O)O)NC(=O)[C@H](Cc3ccc(O)cc3)NC(=O)[C@H](CC(N)=O)NC(=O)CSC[C@@H](C(=O)NCCCCCCCCCCC(=O)O)NC(=O)[C@H](CCCNC(N)=O)NC(=O)[C@H](C(C)C)NC(=O)[C@H](CC3CCCCC3)NC(=O)[C@H](CCN)NC(=O)[C@@H](CC(C)C)NC(=O)[C@H](CCCN)NC(=O)[C@H](Cc3ccc(O)cc3)NC(=O)[C@H](Cc3ccc(-c4ccccc4)cc3)NC(=O)[C@H](C(C)C)NC2=O)c1 [Compound 3403] ({CH2CO}-NYD[Phe(3-Me)]V[Bip]Y[Orn][dL][Dab][Cha]V[Cit]C[Aun]-OH; thioether N-14)
10.3	Cc1cccc(C[C@@H]2NC(=O)C(CC(=O)O)NC(=O)[C@H](Cc3ccc(OCC(=O)O)cc3)NC(=O)[C@H](CN)NC(=O)CSC[C@@H](C(=O)NCCOCCOCC(=O)N[C@@H](CCCCN)C(=O)NCCCCCCCCCCC(=O)O)NC(=O)[C@H]([C@@H](C)O)NC(=O)[C@H](C(C)C)NC(=O)[C@H](CC3CCCCC3)NC(=O)[C@H](CCN)NC(=O)[C@@H](CC(C)C)NC(=O)[C@H](CCCN)NC(=O)[C@H](CCCNC(N)=O)NC(=O)C(Cc3ccc(-c4ccccc4)cc3)NC(=O)[C@H](C(C)C)NC2=O)c1 (stereo partly drawn) [Compound 1179] ({CH2CO}-[Dap]Y(Carboxymethyl)[ξD][Phe(3-Me)]V[ξBip][Cit][Orn][dL][Dab][Cha]VTC[AEEA]K[Aun]-OH; thioether N-14)
